Experimental data taken from patent US10793551B2, “Benzimidazole-indole inhibitors of Mnk1 and Mnk2” (eFFECTOR Therapeutics, Inc., priority 2017, dated 2020).

Biological target: T1, MNK
T1 construct: 10 nM recombinant MNK1 (Life Technologies, PR9138A)
Experiment: MNK Biochemical Enzymatic Assay (ADP-Glo kinase assay)
Conditions: recombinant MNK1 (300 μM ATP) / MNK2 (10 μM ATP) described; table does not say which isoform; read-out: MNK Biochemical Enzymatic Assay (IC50) Potency
Method: Compounds are screened for MNK inhibition using the ADP-Glo kinase assay kit (Promega, catalogue No. V9101). All kinase reactions are performed in Reaction Buffer E (15 mM HEPES pH7.4, 20 mM NaCl, 1 mM EGTA, 10 mM MgCl2, 0.1 mg/ml BGG, and 0.02% Tween-20). Final MNK1 reactions contained 10 nM recombinant MNK1 (Life Technologies, PR9138A), 100 μM MNK substrate peptide Ac-TATKSGSTTKNR-NH2 (American Peptide Company), 300 μM ATP, and varying concentrations of the inhibitory compound of interest. Final MNK2 reactions contained 3 nM recombinant MNK2 (Life Technologies, PV5607), 50 μM MNK substrate peptide Ac-TATKSGSTTKNR-NH2 (American Peptide Company), 10 μM ATP, and varying concentrations of the inhibitory compound of interest. Final DMSO concentration in each reaction is 1%.
Kinase reactions are carried out in 96-well half-area white flat-bottom polystyrene plates in a final volume of 25 al. MNK1/2 enzymes are pre-incubated with compound and peptide substrate for 5 minutes prior to the addition of ATP. After the addition of ATP, kinase reactions are incubated at room temperature for 40 minutes. Reactions are subsequently stopped by the addition of 25 al of ADP-Glo Reagent and incubating for an additional 40 minutes. The final luminescent signal used for kinase activity readout is produced by the addition of 45 al of Kinase Detection Reagent (ADP-Glo kit, Promega) and incubating for 40 minutes. The luminescent signal is detected using a Victor 2 multilabel counter (Perkin Elmer) and the concentration of compound necessary to achieve inhibition of enzyme activity by 50% (IC50) is calculated using signals from an 8-point compound dilution series.
To this end, IC50 values of less than 1 μM are labeled as “+++”, from 1 to 10 μM are labeled as “++”, and from […] are labeled as “+”.

SMILES	IC50
CC(C)Cc1c(C(N)=O)ccc2c1ccn2-c1ncnc(N)c1Cl [Compound 8F, 1-(6-amino-5-chloropyrimidin-4-yl)-4-isobutyl-1H-indole-5-carboxamide]	10 to 100 µM
CC(C)Cc1c(C(N)=O)ccc2c(-c3ncnc(N)c3Cl)cn(C)c12 [Compound 9F, 3-(6-amino-5-chloropyrimidin-4-yl)-7-isobutyl-1-methyl-1H-indole-6-carboxamide]	< 1 µM
CC(C)Cc1c(C(=O)N(C)C)ccc2c1ncn2-c1ncnc(N)c1Cl [Compound 10F, 1-(6-amino-5-chloropyrimidin-4-yl)-4-isobutyl-N,N-dimethyl-1H-benzo[d]imidazole-5-carboxamide]	1 to 10 µM
CC(C)Cc1c(C(=O)N(C)C)ccc2c1ncn2-c1cc(N)ncn1 [Compound 11F, 1-(6-aminopyrimidin-4-yl)-4-isobutyl-N,N-dimethyl-1H-benzo[d]imidazole-5-carboxamide]	1 to 10 µM
CC(C)Cc1c(C(N)=O)ccc2c1cnn2-c1ncnc(N)c1Cl [Compound 12F, 1-(6-amino-5-chloropyrimidin-4-yl)-4-isobutyl-1H-indazole-5-carboxamide]	1 to 10 µM
CC(C)Cc1c(C(N)=O)ccc2c1ncn2-c1ncnc(N)c1Cl [Compound 13F, 1-(6-amino-5-chloropyrimidin-4-yl)-4-isobutyl-1H-benzo[d]imidazole-5-carboxamide]	1 to 10 µM
